Measured values as given in patent US9833497B2, “Human originated EGF domain proteins and use of the same” (CHENGDU SOURCEBIO LIMITED-LIABILITY COMPANY, priority 2013, dated 2017).

Tests used:
Type in all cases: cell-based
E. coli BL21 = test: MIC against Gram-negative bacteria: E. coli BL21
Outline: (§1)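 Bacteria grown in LB at 37° C with shaking to McFarland 0.5, pelleted and resuspended in fresh LB, then seeded at 5×10^5 CFU/mL per well. Purified recombinant human EGF domain proteins were two-fold serially diluted in triplicate and plates shaken at 37° C, 175 rpm. MIC is the lowest protein concentration with no bacterial growth.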

Proteus mirabilis = test: MIC against Gram-negative bacteria: Proteus mirabilis
Outline: as §1

E. coli DH5α = test: Antibacterial activity: MIC and growth curve against E. coli DH5α in 96-well plate; settings: minimal inhibitory concentration against E. coli DH5α; 96-well plate, 5×10^5 CFU/mL, 37° C., judged after 8 h
Outline: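 Log-phase DH5α (OD600 about 0.5, 37° C, 185 rpm in LB) was pelleted, resuspended in fresh LB and seeded at 5×10^5 CFU/mL with recombinant protein at 50, 25 and 12.5 μg/mL (two-fold series), in triplicate. Plates were shaken at 175 rpm, 37° C, and OD600 was read every 30 min. MIC was the lowest concentration with no growth.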

Aeromonas hydrophila = test: MIC against Gram-negative bacteria: Aeromonas hydrophila
Outline: as §1

Klebsiella pneumonia = test: MIC against Gram-negative bacteria: Klebsiella pneumonia
Outline: as §1

Enterobacter cloacae = test: MIC against Gram-negative bacteria: Enterobacter cloacae
Outline: as §1

Pseudomonas aeruginosa = test: MIC against Gram-negative bacteria: Pseudomonas aeruginosa
Outline: as §1

Moraxella catarrhalis = test: MIC against Gram-negative bacteria: Moraxella catarrhalis
Outline: as §1

Citrobacter diversus = test: MIC against Gram-negative bacteria: Citrobacter diversus
Outline: as §1

Serratia marcescens = test: MIC against Gram-negative bacteria: Serratia marcescens
Outline: as §1

Proteus vulgaris = test: MIC against Gram-negative bacteria: Proteus vulgaris
Outline: as §1

[1] = E. coli BL21, 10 h cultivation at 37° C.
[2] = P. mirabilis, 10 h cultivation at 37° C.
[3] = A. hydrophila, 10 h cultivation at 37° C.
[4] = K. pneumonia, 10 h cultivation at 37° C.
[5] = E. cloacae, 10 h cultivation at 37° C.
[6] = P. aeruginosa, 10 h cultivation at 37° C.
[7] = M. catarrhalis, 10 h cultivation at 37° C.
[8] = C. diversus, 10 h cultivation at 37° C.
[9] = S. marcescens, 10 h cultivation at 37° C.
[10] = P. vulgaris, 10 h cultivation at 37° C.
[11] = E. coli BL21, 10 h cultivation at 37° C., 5×10^5 CFU/mL
[12] = P. mirabilis, 10 h cultivation at 37° C., 5×10^5 CFU/mL
[13] = A. hydrophila, 10 h cultivation at 37° C., 5×10^5 CFU/mL
[14] = K. pneumonia, 10 h cultivation at 37° C., 5×10^5 CFU/mL
[15] = E. cloacae, 10 h cultivation at 37° C., 5×10^5 CFU/mL
[16] = P. aeruginosa, 10 h cultivation at 37° C., 5×10^5 CFU/mL
[17] = M. catarrhalis, 10 h cultivation at 37° C., 5×10^5 CFU/mL
[18] = C. diversus, 10 h cultivation at 37° C., 5×10^5 CFU/mL
[19] = S. marcescens, 10 h cultivation at 37° C., 5×10^5 CFU/mL
[20] = P. vulgaris, 10 h cultivation at 37° C., 5×10^5 CFU/mL
[21] = E. coli BL21, 96-well plate, 5×10^5 CFU/mL, 37° C., 10 h
[22] = Proteus mirabilis, 96-well plate, 5×10^5 CFU/mL, 37° C., 10 h
[23] = Aeromonas hydrophila, 96-well plate, 5×10^5 CFU/mL, 37° C., 10 h
[24] = Klebsiella pneumonia, 96-well plate, 5×10^5 CFU/mL, 37° C., 10 h
[25] = Enterobacter cloacae, 96-well plate, 5×10^5 CFU/mL, 37° C., 10 h
[26] = Pseudomonas aeruginosa, 96-well plate, 5×10^5 CFU/mL, 37° C., 10 h
[27] = Moraxella catarrhalis, 96-well plate, 5×10^5 CFU/mL, 37° C., 10 h
[28] = Citrobacter diversus, 96-well plate, 5×10^5 CFU/mL, 37° C., 10 h
[29] = Serratia marcescens, 96-well plate, 5×10^5 CFU/mL, 37° C., 10 h
[30] = Proteus vulgaris, 96-well plate, 5×10^5 CFU/mL, 37° C., 10 h
[31] = 96-well plate, 5×10^5 CFU/mL, 37° C., 10 h

PRT951 (WTDACLSHPCANGSTCTTVANQFSCKCLTGFTGQKCE; listed as Homo sapiens)
100 µg/mL: MIC (Serratia marcescens; [9])
50 µg/mL: MIC (Proteus vulgaris; [10])
12.5 µg/mL: MIC (Aeromonas hydrophila; [3]) | MIC (Enterobacter cloacae; [5]) | MIC (Moraxella catarrhalis; [7])
25 µg/mL: MIC (E. coli BL21; [1]) | MIC (Proteus mirabilis; [2]) | MIC (E. coli DH5α) | MIC (Klebsiella pneumonia; [4]) | MIC (Pseudomonas aeruginosa; [6]) | MIC (Citrobacter diversus; [8])

PRT434 (DVNECATENPCVQTCVNTYGSFICRCDPGYELEEDGVHCS; listed as Homo sapiens)
12.5 µg/mL: MIC (E. coli DH5α) | MIC (Enterobacter cloacae; [15]) | MIC (Pseudomonas aeruginosa; [16]) | MIC (Citrobacter diversus; [18]) | MIC (Proteus vulgaris; [20])
50 µg/mL: MIC (E. coli BL21; [11]) | MIC (Aeromonas hydrophila; [13]) | MIC (Klebsiella pneumonia; [14]) | MIC (Moraxella catarrhalis; [17])
25 µg/mL: MIC (Proteus mirabilis; [12]) | MIC (Serratia marcescens; [19])

PRT773 (PSNPCQDDPCADNSLCVKLHNTSFCLCLEGYYYNSSTCK; listed as Homo sapiens)
12.5 µg/mL: MIC (μg/mL) P. mirabilis (Proteus mirabilis; [12]) | MIC (μg/mL) E. cloacae (Enterobacter cloacae; [15]) | MIC (μg/mL) P. aeruginosa (Pseudomonas aeruginosa; [16]) | MIC (μg/mL) C. diversus (Citrobacter diversus; [18]) | MIC (μg/mL) S. marcescens (Serratia marcescens; [19])
25 µg/mL: MIC (μg/mL) E. coli BL21 (E. coli BL21; [11])
50 µg/mL: MIC (E. coli DH5α) | MIC (μg/mL) A. hydrophila (Aeromonas hydrophila; [13]) | MIC (μg/mL) K. pneumonia (Klebsiella pneumonia; [14]) | MIC (μg/mL) M. catarrhalis (Moraxella catarrhalis; [17]) | MIC (μg/mL) P. vulgaris (Proteus vulgaris; [20])

PRT1210 (SVNPCSSKPCLYGGTCVVDNGGFVCQCRGLYTGQRCQ; listed as Homo sapiens)
25 µg/mL: MIC (E. coli DH5α) | MIC against A. hydrophila (Aeromonas hydrophila; [23]) | MIC against E. cloacae (Enterobacter cloacae; [25]) | MIC against P. aeruginosa (Pseudomonas aeruginosa; [26]) | MIC against M. catarrhalis (Moraxella catarrhalis; [27]) | MIC against P. vulgaris (Proteus vulgaris; [30])
12.5 µg/mL: MIC against E. coli BL21 (E. coli BL21; [21]) | MIC against P. mirabilis (Proteus mirabilis; [22]) | MIC against K. pneumonia (Klebsiella pneumonia; [24]) | MIC against C. diversus (Citrobacter diversus; [28]) | MIC against S. marcescens (Serratia marcescens; [29])

PRT596 (CDCDPRTSQSSHCDQLTGQCPCKLGYGGKRCSECQENYYGDPPGRCIP; listed as Homo sapiens)
12.5 µg/mL: MIC P. mirabilis (Proteus mirabilis; [31]) | MIC (E. coli DH5α) | MIC E. cloacae (Enterobacter cloacae; [31])
25 µg/mL: MIC E. coli BL21 (E. coli BL21; [31]) | MIC A. hydrophila (Aeromonas hydrophila; [31]) | MIC K. pneumonia (Klebsiella pneumonia; [31]) | MIC M. catarrhalis (Moraxella catarrhalis; [31]) | MIC P. vulgaris (Proteus vulgaris; [31])
50 µg/mL: MIC P. aeruginosa (Pseudomonas aeruginosa; [31]) | MIC C. diversus (Citrobacter diversus; [31]) | MIC S. marcescens (Serratia marcescens; [31])

PRT433 (DIDECRYGYCQQLCANVPGSYSCTCNPGFTLNEDGRSCQ; listed as Homo sapiens)
12.5 µg/mL: MIC (E. coli DH5α) | MIC (Aeromonas hydrophila; [13]) | MIC (Klebsiella pneumonia; [14]) | MIC (Pseudomonas aeruginosa; [16]) | MIC (Moraxella catarrhalis; [17]) | MIC (Proteus vulgaris; [20])
50 µg/mL: MIC (Proteus mirabilis; [12]) | MIC (Enterobacter cloacae; [15]) | MIC (Citrobacter diversus; [18]) | MIC (Serratia marcescens; [19])
25 µg/mL: MIC (E. coli BL21; [11])

PRT930 (NFDDCASNPCIHGICMDGINRYSCVCSPGFTGQRCN; listed as Homo sapiens)
12.5 µg/mL: MIC (E. coli BL21; [1]) | MIC (Enterobacter cloacae; [5]) | MIC (Proteus vulgaris; [10])
25 µg/mL: MIC (Proteus mirabilis; [2]) | MIC (Aeromonas hydrophila; [3]) | MIC (Pseudomonas aeruginosa; [6]) | MIC (Citrobacter diversus; [8])
50 µg/mL: MIC (E. coli DH5α) | MIC (Klebsiella pneumonia; [4]) | MIC (Moraxella catarrhalis; [7]) | MIC (Serratia marcescens; [9])

PRT835 (DVDECASSRGGCEHHCTNLAGSFQCSCEAGYRLHEDRRGCS; listed as Homo sapiens)
12.5 µg/mL: MIC (μg/mL) K. pneumonia (Klebsiella pneumonia; [14]) | MIC (μg/mL) C. diversus (Citrobacter diversus; [18]) | MIC (μg/mL) P. vulgaris (Proteus vulgaris; [20])
50 µg/mL: MIC (μg/mL) E. coli BL21 (E. coli BL21; [11]) | MIC (μg/mL) P. mirabilis (Proteus mirabilis; [12]) | MIC (μg/mL) E. cloacae (Enterobacter cloacae; [15])
25 µg/mL: MIC (E. coli DH5α) | MIC (μg/mL) A. hydrophila (Aeromonas hydrophila; [13]) | MIC (μg/mL) P. aeruginosa (Pseudomonas aeruginosa; [16]) | MIC (μg/mL) M. catarrhalis (Moraxella catarrhalis; [17]) | MIC (μg/mL) S. marcescens (Serratia marcescens; [19])

PRT825 (FGPNCTHVCGCGQGAACDPVTGTCLCPPGRAGVRCE; listed as Homo sapiens)
12.5 µg/mL: MIC (μg/mL) E. coli BL21 (E. coli BL21; [11]) | MIC (μg/mL) P. mirabilis (Proteus mirabilis; [12]) | MIC (μg/mL) A. hydrophila (Aeromonas hydrophila; [13])
50 µg/mL: MIC (μg/mL) K. pneumonia (Klebsiella pneumonia; [14]) | MIC (μg/mL) M. catarrhalis (Moraxella catarrhalis; [17]) | MIC (μg/mL) P. vulgaris (Proteus vulgaris; [20])
25 µg/mL: MIC (E. coli DH5α) | MIC (μg/mL) E. cloacae (Enterobacter cloacae; [15]) | MIC (μg/mL) P. aeruginosa (Pseudomonas aeruginosa; [16]) | MIC (μg/mL) C. diversus (Citrobacter diversus; [18]) | MIC (μg/mL) S. marcescens (Serratia marcescens; [19])

PRT100 (DVNECTSGQNPCHSSTHCLNNVGSYQCRCRPGWQPIPGSPNGPNNTVCE; listed as Homo sapiens)
25 µg/mL: MIC (μg/mL) P. vulgaris (Proteus vulgaris; [30])
12.5 µg/mL: MIC (μg/mL) E. coli BL21 (E. coli BL21; [21]) | MIC (μg/mL) P. mirabilis (Proteus mirabilis; [22]) | MIC (E. coli DH5α) | MIC (μg/mL) A. hydrophila (Aeromonas hydrophila; [23]) | MIC (μg/mL) K. pneumonia (Klebsiella pneumonia; [24]) | MIC (μg/mL) E. cloacae (Enterobacter cloacae; [25]) | MIC (μg/mL) P. aeruginosa (Pseudomonas aeruginosa; [26]) | MIC (μg/mL) M. catarrhalis (Moraxella catarrhalis; [27]) | MIC (μg/mL) C. diversus (Citrobacter diversus; [28]) | MIC (μg/mL) S. marcescens (Serratia marcescens; [29])

PRT562 (CQCHNNIDTTDPEACDKETGRCLKCLYHTEGEHCQFCRFGYYGDALQQDCRK; listed as Homo sapiens)
25 µg/mL: MIC against E. coli BL21 (E. coli BL21; [31]) | MIC against A. hydrophila (Aeromonas hydrophila; [31]) | MIC against K. pneumonia (Klebsiella pneumonia; [31]) | MIC against M. catarrhalis (Moraxella catarrhalis; [31]) | MIC against P. vulgaris (Proteus vulgaris; [31])
50 µg/mL: MIC (E. coli DH5α) | MIC against E. cloacae (Enterobacter cloacae; [31]) | MIC against P. aeruginosa (Pseudomonas aeruginosa; [31]) | MIC against C. diversus (Citrobacter diversus; [31]) | MIC against S. marcescens (Serratia marcescens; [31])
12.5 µg/mL: MIC against P. mirabilis (Proteus mirabilis; [31])
